From the supplement of paper PMC12613149

Tests used:
[1] = collision cross section (TIMS, N2 drift gas) of the primary ion; higher = larger gas-phase ion size
Experimental: (§1)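 Reference mixture of environmental contaminants analysed by RP-LC (BEH C18, 50 °C; ESI+ with water/MeOH plus formic acid and ammonium formate, ESI- with ammonium bicarbonate) coupled to a timsTOF Pro 2 with trapped ion mobility in nitrogen (ramp/accumulation 100 ms). CCS was calibrated with Agilent tune mix (CCS compendium) and averaged over five injections at 0.5-500 ng/mL. The table reports the lowest-CCS (putative monomer) peak; retention times are on the same gradient.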

[2] = reversed-phase LC retention time (C18, 15 min MeOH gradient); higher = more hydrophobic / later elution
Experimental: as §1

[3] = ionization mode: ESI+, ion species: [M+H]+
[4] = ionization mode: ESI-, ion species: [M-H]-
[5] = ionization mode: ESI+, ion species: [M]+

collision cross section [1, 3] [Å²] | reversed-phase LC retention time [2, 3] [min] | collision cross section [1, 4] [Å²] | reversed-phase LC retention time [2, 4] [min] | collision cross section [1, 5] [Å²] | reversed-phase LC retention time [2, 5] [min] | SMILES
128.9 | 6.89 |  |  |  |  | Cc1cc(N)c2ccccc2n1 [4-Amino-2-methylquinoline]
138.47 | 7.89 | 137.21 | 7.97 |  |  | CN(C)S(=O)(=O)c1ccc(N)cc1 [4-Amino-N,N-dimethylbenzenesulfonamide]
142.4 | 7.19 |  |  |  |  | Cc1c(N)c(=O)n(-c2ccccc2)n1C [4-Aminoantipyrine]
143.89 | 10.3 |  |  |  |  | COc1cc(Cl)c(OC)cc1N [4-Chloro-2,5-dimethoxyaniline]
144.44 | 7.67 |  |  |  |  | Cc1c(C=O)c(=O)n(-c2ccccc2)n1C [4-Formyl-antipyrine]
123.13 | 5.99 |  |  |  |  | Oc1cccc2[nH]nnc12 [4-Hydroxybenzotriazole]
124.53 | 6.72 | 122.52 | 6.7 |  |  | Oc1ccnc2ccccc12 [4-Hydroxyquinoline]
 |  | 147.46 | 4.88 |  |  | Nc1cccc2cc(S(=O)(=O)O)ccc12 [5-Aminonaphthalene-2-sulfonic acid]
132.8 | 7.64 | 129.23 | 11.6 |  |  | c1ccc2c(c1)[nH]c1ccncc12 [5-Carboline]
 |  | 120.9 | 9.28 |  |  | Clc1ccc2n[nH]nc2c1 [5-Chlorobenzotriazole]
123.85 | 9.87 |  |  |  |  | Cc1ccc2[nH]nnc2c1 [5-Methyl-1H-benzotriazole]
 |  | 137.91 | 0.96 |  |  | O=C(O)c1cc(C(=O)O)cc([N+](=O)[O-])c1 [5-Nitroisophthalic acid]
172.06 | 6.11 |  |  |  |  | COc1cc2nc(N3CCNCC3)nc(N)c2cc1OC [6,7-Dimethoxy-2-(piperazin-1-yl)quinazolin-4-amine]
 |  | 149.95 | 5.24 |  |  | CC(C)N1C(=O)c2cc(O)ccc2NS1(=O)=O [6-Hydroxybentazone]
126.69 | 2.22 |  |  |  |  | S=c1nc[nH]c2nc[nH]c12 [6-Mercaptopurine]
142.36 | 12.2 |  |  |  |  | CCNc1ccc2c(C)cc(=O)oc2c1 [7-(Ethylamino)-4-methylcoumarin]
131.77 | 9.22 |  |  |  |  | Cc1cc(=O)oc2cc(N)ccc12 [7-Amino-4-methylcoumarin]
152.41 | 14.3 |  |  |  |  | CCN(CC)c1ccc2c(C)cc(=O)oc2c1 [7-Diethylamino-4-methylcoumarin]
154.89 | 10.7 |  |  |  |  | NC(=O)N1c2ccccc2CC(O)c2ccccc21 (configuration not stated) [10,11-Dihydro-10-hydroxycarbamazepine]
 |  | 173.91 | 14.5 |  |  | C[C@]12CC[C@@H]3c4ccc(O)cc4CC[C@H]3[C@@H]1CC[C@H]2O [17-alpha-Estradiol]
 |  | 182.24 | 14.3 |  |  | C#C[C@]1(O)CC[C@H]2[C@@H]3CCc4cc(O)ccc4[C@H]3CC[C@@]21C [17-alpha-Ethinylestradiol]
 |  | 173.91 | 14.5 |  |  | C[C@]12CC[C@@H]3c4ccc(O)cc4CC[C@H]3[C@@H]1CC[C@@H]2O [17-beta-Estradiol]
168.31 | 8 |  |  |  |  | Nc1nc(NC2CC2)c2ncn([C@H]3C=C[C@@H](CO)C3)c2n1 [Abacavir]

Second part, the molecule before the results:

SMILES | collision cross section [1, 3] [Å²] | reversed-phase LC retention time [2, 3] [min] | collision cross section [1, 4] [Å²] | reversed-phase LC retention time [2, 4] [min] | collision cross section [1, 5] [Å²] | reversed-phase LC retention time [2, 5] [min]
Cc1cc(Cc2ccc(N)c(C)c2)ccc1N [4,4'-Methylene-bis(2-methyl aniline)] | 171.67 | 8.47 |  |  |  | 
Nc1ccc(Cc2ccc(N)cc2)cc1 [4,4'-Methylenedianiline] | 162.72 | 5.68 |  |  |  | 
Nc1ccc(Oc2ccc(N)cc2)cc1 [4,4'-Oxydianiline] | 159.82 | 4.06 |  |  |  | 
Nc1ccc(Sc2ccc(N)cc2)cc1 [4,4'-Thiodianiline] | 164.43 | 9.19 |  |  |  | 
CC(=O)CCc1ccc(O)cc1 [4-(4-Hydroxyphenyl)butan-2-one] | 132.84 | 11.7 | 135.07 | 11.9 |  | 
Nc1cnn(-c2ccccc2)c(=O)c1Cl [4-Amino-5-chloro-1-phenyl-6-pyridazone] | 143.41 | 9.16 | 141.68 | 9.26 |  | 
C[C@]12CCC(=O)C=C1CC[C@@H]1[C@@H]2[C@@H](O)C[C@]2(C)C(=O)CC[C@@H]12 [4-Androsten-11beta-ol-3,17-dione] | 174.44 | 12.8 |  |  |  | 
C[C@]12CCC(=O)C=C1CC[C@@H]1[C@@H]2CC[C@]2(C)C(=O)CC[C@@H]12 [4-Androstene-3,17-dione] | 172.73 | 13.9 |  |  |  | 
Nc1ccc(Cl)cc1 [4-Chloroaniline] | 114.68 | 8.59 |  |  |  | 
CC(C)(c1ccccc1)c1ccc(O)cc1 [4-Cumylphenol] |  |  | 156.38 | 15.7 |  | 
CC1(C)CC(O)CC(C)(C)N1CCO [4-Hydroxy-1-(2-hydroxyethyl)-2,2,6,6-tetramethylpiperidine] | 143.1 | 2.23 |  |  |  | 
Oc1c(Cl)cc(-c2ccc(Cl)cc2)cc1Cl [4-Hydroxy-3,4',5-trichlorobiphenyl] |  |  | 154.17 | 15.5 |  | 
O=C(c1ccccc1)c1ccc(O)cc1 [4-Hydroxybenzophenone] |  |  | 144.47 | 12 |  | 
CC(C)(C)CC(C)(C)c1ccc(O)cc1 [4-tert-Octylphenol] |  |  | 156.39 | 17.3 |  | 
O=S(=O)(O)c1cccc2c(O)cccc12 [5-Hydroxy-1-naphthalenesulfonic acid] |  |  | 143.15 | 2.41 |  | 
CCCc1cc(=O)[nH]c(=S)[nH]1 [6-Propyl-2-thiouracil] |  |  | 133.88 | 6.69 |  | 
O=P(O)(OCCC(F)(F)C(F)(F)C(F)(F)C(F)(F)C(F)(F)C(F)(F)F)OCCC(F)(F)C(F)(F)C(F)(F)C(F)(F)C(F)(F)C(F)(F)F [6:2 Fluorotelomer phosphate diester] |  |  | 232.73 | 17.6 |  | 

SMILES | collision cross section [1, 3] [Å²] | reversed-phase LC retention time [2, 3] [min] | collision cross section [1, 4] [Å²] | reversed-phase LC retention time [2, 4] [min] | collision cross section [1, 5] [Å²] | reversed-phase LC retention time [2, 5] [min]
O=S(=O)(O)CCC(F)(F)C(F)(F)C(F)(F)C(F)(F)C(F)(F)C(F)(F)F [6:2 fluorotelomer sulfonic acid] |  |  | 168.03 | 14.7 |  | 
CC(C)CC(C)NC1=CC(=O)C(Nc2ccccc2)=CC1=O (configuration not stated) [6PPD-Quinone] | 181.85 | 15.6 |  |  |  | 
C[C@H]1C[C@@H]2[C@H]([C@@H](O)C[C@@]3(C)[C@H]2CC[C@]3(O)C(=O)CO)[C@@]2(C)C=CC(=O)C=C12 [6alpha-Methylprednisolone] | 190.78 | 13.3 |  |  |  | 
C[C@@H](CCC(=O)O)C1CCC2C3C(=O)CC4C[C@H](O)CC[C@]4(C)C3CC[C@@]21C (some centres not stated) [7-Oxolithocholic acid] | 204.58 | 15.8 | 208.67 | 14.3 |  | 
NC(=O)N1c2ccccc2C(O)C(O)c2ccccc21 (configuration not stated) [10,11-Dihydro-10,11-dihydroxycarbamazepine] | 157.4 | 10.4 |  |  |  | 
C[C@]12CC(=O)[C@H]3[C@@H](CCC4=CC(=O)CC[C@@]43C)[C@@H]1CC[C@@H]2O [11-Ketotestosterone] | 174.04 | 12.6 |  |  |  | 
CC(=O)C1(O)CCC2C3CCC4=CC(=O)CCC4(C)C3CCC21C (stereo not drawn) [17alpha-Hydroxyprogesterone] | 183.52 | 14.5 | 185.03 | 14.8 |  | 
C[C@]12CCC(=O)C=C1CC[C@@H]1[C@@H]2CC[C@@]2(C)[C@H]1CC[C@]2(C)O [17alpha-Methyltestosterone] | 178.22 | 14.7 |  |  |  | 
CC12CCC(=O)C=C1CCC1C2CCC2(C)C(C(=O)CO)CCC12 (configuration not stated) [21-Hydroxyprogesterone] | 183.52 | 14.5 |  |  |  | 
C[N+](C)(C)CC(O)CCl (configuration not stated) [(3-Chloro-2-hydroxypropyl)trimethylammonium] |  |  |  |  | 127.94 | 1.03
O=C(O)Cc1ccc(S(=O)(=O)O)cc1 [(4-Sulfophenyl)acetic acid] |  |  | 135.07 | 0.96 |  | 
COC[P+](c1ccccc1)(c1ccccc1)c1ccccc1 [(Methoxymethyl)triphenylphosphonium] |  |  |  |  | 170.42 | 10.6
C[C@@H]1NC(C)(C)CO[C@@]1(O)c1cccc(Cl)c1 [(S,S)-Hydroxybupropion] | 159.75 | 9.89 | 159.63 | 13.5 |  | 
CC1=CC(=O)NS(=O)(=O)O1 [Acesulfame] |  |  | 122.01 | 2.26 |  | 
CC(=O)Nc1ccc(O)cc1 [Acetaminophen] | 130.01 | 5.38 |  |  |  | 
CC(=NC#N)N(C)Cc1ccc(Cl)nc1 [Acetamiprid] | 153.22 | 9.29 | 148.19 | 9.38 |  | 
CCOCN(C(=O)CCl)c1c(C)cccc1CC [Acetochlor] | 158.08 | 15 |  |  |  | 
